“Also recorded” adds a separate entry of the source.
Tests used:
[1] = Photosensitivity screening: H2O2 formation by antioxidant candidates upon light exposure (Amplex Ultra Red Assay); type: physicochemical; details: for (H2O2 produced by Compound)/(H2O2 produced by L-Trp): 1 mM in 20 mM histidine acetate pH 5.5, four hours of light at 250 W/m^2; for H2O2 production upon light exposure compared to L-Trp (in words) / H2O2 produced in comparison to L-Trp (times more): 1 mM, 20 mM L-His-acetate pH 5.5, 4 h light; for H2O2 production upon light exposure compared to L-Trp (in words): 0.22 million lux hours
Method: As a screening tool, antioxidant candidates were exposed to light for four hours at 250 W/m^2 and the resulting H2O2 formation was quantified by the Amplexassay. Specifically, antioxidants were prepared to 1 mM in 20 mM histidine acetate buffer at pH 5.5. The 1 mM antioxidant solutions were aliquoted into glass vials (2 mL/glass vial) and exposed to four hours of light at 250 W/m^2 in an Atlas SunTest CPS+ Xenon Test Instrument (Chicago, Ill.). Total UV dose was 90 watt-hours/square meter and total visible dose was 0.22 million lux hours over the 4-hour period. Control vials were wrapped in aluminum foil and treated similarly. The amount of hydrogen peroxide generated after exposure to light was measured using the Amplex® Ultra Red Assay (Invitrogen, Carlsbad, Calif.) following the manufacturer's recommended procedure. On addition of horseradish peroxidase (HRP), the dye reacted 1:1 stoichiometrically with H2O2, resulting in the production of fluorescent oxidation product resorufin. In this study, fluorescence readings were obtained using a Spectra Max M2 Micro-plate Reader (Molecular Devices, Sunnyvale, Calif.) with excitation and emission set at 560 nm and 590 nm, respectively. Final H2O2 concentrations were determined using a standard curve ranging from 0 μm to 20 μm. […]

[2] = Cyclic voltammetry (CV) screening of oxidation potentials; type: physicochemical; details: for Oxidation potential relative to L-Trp (in words): cyclic voltammetry; for Oxidation Potential (anodic peak): glassy carbon working electrode, 0.2 M lithium perchlorate
Method: The oxidation/reduction characteristics of the compounds were investigated. Several compounds, including L-Trp and derivatives, were evaluated for the protection of Trp oxidation in proteins using cyclic voltammetry (CV) and rank ordered based on their oxidation potentials (Table 2). Specifically, the candidate antioxidants were dissolved in deionized water and then added to a 0.2 M lithium perchlorate electrolyte solution. […] Solutions were scanned from −0.10 V to +1.50 V at a scan rate of either 100 or 500 mV/sec. The analytical cell was purged for four minutes with nitrogen before scanning of each antioxidant solution. The input was a linear scan of the potential of a working electrode, and the output was measurement of the resulting current. […] Redox reactions were characterized by sharp increases or decreases in current (peaks). The potential at which an oxidation reaction occurred was referred to as the anodic peak potential (or oxidation potential), and the potential at which a reduction occurred was referred to as is the cathodic peak (or reduction) potential.

mAb1 [3] = assay: mAb1 light stress study, 16 hours; Fab/Fc oxidation by RP-HPLC; type: physicochemical, human; details: 16 hours of light at 250 W/m^2, excipient 1 mM
Method: (§1) The fragments were reduced with DTT, and then separated and identified via Liquid Chromatography-Mass Spectrometry (LC-MS). […] Comparison of area integrated under the oxidized and native peaks was used to quantify HC Fab and Fc oxidation. […] By using the papain digest RP-HPLC method in the present study it was possible to investigate Trp residue oxidation by quantifying HC Fab oxidation, and Met residue oxidation by quantifying HC Fc oxidation.
Antioxidants were added at 1 mM. Glass vials containing these formulations were exposed to 250 W/m^2 light in an Atlas SunTest CPS+ Xenon Test Instrument (Chicago, Ill.). Control vials were wrapped in aluminum foil and treated similarly. After light exposure, solutions were prepared for analysis by reverse-phase HPLC as described above.

mAb1 [4] = assay: mAb1 AAPH stress study; Fab/Fc oxidation by RP-HPLC; type: physicochemical, human; details: AAPH, 24 hours at 40° C.; antioxidants at 1 mM; label mAb1 = no excipient
From the text: as §1
% Fab oxidation and % Fc oxidation were calculated as follows: […]
Antioxidants were added at 1 mM. […] After buffer exchange, each solution was prepared for analysis by reverse-phase HPLC as described above.

mAb1 [5] = assay: mAb1 light stress, eight hours, with L-Trp and L-Met; Fab/Fc oxidation by papain digest RP-HPLC; type: physicochemical, human; details: 8 h light at 250 W/m^2
Method: L-tryptophan (L-Trp), an antioxidant used in protein formulations, has been recently shown to be photosensitive (Igarashi et al., Anal Sci 23(8):943-8 (2007)) and to have the ability to produce H2O2 upon light exposure. […] Control vials were wrapped in aluminum foil and treated similarly. After light exposure, solutions were prepared for analysis by reverse-phase HPLC. […] Following incubation, 900 μL of the solution was combined with 100 μL of 1 M dithiothreitol (DTT) and incubated for another thirty minutes at 37° C. Samples were then run on an Agilent, Inc. 1100/1200 HPLC system (Santa Clara, Calif.) equipped with UV detection at 280 nm in conjunction with a Varian, Inc. Pursuit 3 μm, 2 mm ID×250 mm diphenyl column (Palo Alto, Calif.). Mobile Phase A was 0.1% TFA in water. Mobile Phase B was 0.1% TFA in acetonitrile. The mobile phase gradient increased linearly from 34% B at 0 minutes to 43% B at 50.0 minutes, then to 95% B at 50.1 minutes. The gradient remained at 95% B until 60.1 minutes, and then decreased linearly from 95% B to 34% B between 60.1 and 60.2 minutes. The gradient remained at 34% B until the end of the cycle at 80.2 minutes. The column temperature was 65° C., total flow rate was 0.2 mL/min, and injection volume of each sample was 6 μL. Chromatograms were then integrated for quantification of oxidation.

Row | Oxidation potential relative to L-Trp (in words) [2] | Oxidation Potential (anodic peak) [2] [V vs Ag/AgCl] | Structure (SMILES) | (H2O2 produced by Compound)/(H2O2 produced by L-Trp) [1] | H2O2 production upon light exposure compared to L-Trp (in words) [1] | also measured
1 |  |  | Nc1ccccc1C(=O)O [Anthranilic Acid] | 2.50 | twice as much H2O2 | 
2 |  |  | Oc1cccc2[nH]ccc12 [4-Hydroxyindole, 4-Hydroxy Indole] | 0.00 |  | 
3 |  |  | Oc1cccc2cc[nH]c12 [7-Hydroxyindole, 7-Hydroxy Indole] | −0.03 |  | Effect on light-induced Fab oxidation (in words) (mAb1 [3]): reducing Fab oxidation to near control levels; Fab (Trp residue) oxidation of mAb1 after AAPH incubation (mAb1 [4]): about 2%
4 |  | 0.600 | NCCc1c[nH]c2ccc(O)cc12 [Serotonin (5-Hydroxytryptamine), 5-hydroxytryptamine] | 0.03 | very little H2O2; also recorded: low levels of H2O2 production | Effect on light-induced Fab oxidation (in words) (mAb1 [3]): reducing Fab oxidation to near control levels; Fab (Trp residue) oxidation of mAb1 after AAPH incubation (mAb1 [4]): about 2%
5 |  |  | Cc1ncc(CO)c(CO)c1O [Pyridoxine] | 5.16 |  | H2O2 produced in comparison to L-Trp (times more) [1]: 5 times
6 | higher oxidation potential than L-Trp | 1.015 | NC(=O)[C@@H](N)Cc1c[nH]c2ccccc12 [L-Trpamide, Tryptophanamide] | 0.43 |  | Fc oxidation under light stress compared to no excipient control (in words) (mAb1 [3]): more Fc oxidation; Fab oxidation increase over the control level (mAb1 Ref Mat) (mAb1 [3]; label mAb1 = No Excipient): 8 fold
7 |  |  | Cc1c(C)c2c(c(C)c1O)CCC(C)(C(=O)O)O2 (stereo not drawn) [Trolox] | 122.75 |  | H2O2 produced in comparison to L-Trp (times more) [1]: 123 times
8 |  | 0.410 | Nc1ccc2[nH]cc(C[C@H](N)C(=O)O)c2c1 (racemic) [5-Amino-DL-Trp, 5-Amino-Tryptophan] | 0.29 | low levels of H2O2 production | 
9 |  |  | Nc1ccc(O)cc1C(=O)O [5-Hydroxyanthranilic Acid, 5-Hydroxy Anthranilic Acid] | 0.44 | half as much H2O2 | 
10 |  |  | O=C(O)c1cc2cccc(O)c2[nH]1 [7-Hydroxyindole-2-Carboxylic Acid, 7-Hydroxy Indole-2-Carboxylic Acid] | 0.15 |  | 
11 |  | 0.730 | COc1ccc2[nH]cc(CCNC(C)=O)c2c1 [N-acetyl-5-methoxytryptamine] | 0.28 | less than a third of the H2O2 | 
12 | higher oxidation potential than L-Trp | 0.965 | N[C@@H](Cc1c[nH]c2ccc(F)cc12)C(=O)O [5-Fluoro-L-Trp, 5-Fluoro-Tryptophan] | 0.71 | produced more H2O2 | 
13 |  | 0.875 | CC(=O)N[C@@H](Cc1c[nH]c2ccccc12)C(=O)O [N-Acetyl-L-Trp, N-Acetyl-Tryptophan] | 0.31 |  | 
14 |  |  | CSCC[C@H](N)C(=O)O [L-Met, L-methionine] |  |  | Effect on Fab oxidation of mAb1 (in words) (mAb1 [5]; 10, 25, 50, 100 mM L-Met added to formulation containing 1 mM L-Trp): appeared to reduce Fab oxidation slightly; Effect on Fc oxidation of mAb1 (in words) (mAb1 [5]; L-Met 10, 25, 50, 100 mM added to 1 mM L-Trp, label mAb1 = No Excipient): reduced the amount of Fc oxidation
15 | higher oxidation potential than L-Trp | 1.055 | NC(Cc1c[nH]c2ccc([N+](=O)[O-])cc12)C(=O)O (racemic) [5-nitro-DL-tryptophan] |  |  | 
16 |  | 0.890 | COc1ccc2[nH]cc(C[C@H](N)C(=O)O)c2c1 (racemic) [5-Methoxy-DL-Trp, 5-Methoxy-Tryptophan] | 1.05 | produced more H2O2 | 
17 | higher oxidation potential than L-Trp | 1.040 | Nc1ccccc1C(=O)CC(N)C(=O)O [L-Kynurenine, Kynurenine] | 0.20 |  | H2O2 production upon light exposure compared to L-Trp (in words) ([1]; listed as L-kynurenine): did not produce much H2O2; H2O2 production upon light exposure compared to L-Trp (in words) ([1]; listed as kynurenine): about one fifth of the H2O2
18 |  |  | O=C(O)c1cc(O)ccc1O [5-Hydroxysalicylic Acid, 5-Hydroxy Salicylic Acid] | 0.84 |  | 

Row | Structure (SMILES) | Oxidation potential relative to L-Trp (in words) [2] | Oxidation Potential (anodic peak) [2] [V vs Ag/AgCl] | (H2O2 produced by Compound)/(H2O2 produced by L-Trp) [1] | H2O2 production upon light exposure compared to L-Trp (in words) [1] | also measured
19 | c1ccc2[nH]ccc2c1 [Indole] | significantly lower oxidation potential than L-Trp |  | 0.95 | behaved similarly to L-Trp | 
20 | O=C(O)Cc1c[nH]c2ccccc12 [Indole-3-Acetic Acid] | higher oxidation potential than L-Trp | 0.948 | 2.40 | twice as much H2O2; also recorded: two times more; also recorded: produced more H2O2 | 
21 | O=C(O)Cc1c[nH]c2ccc(O)cc12 [5-Hydroxyindole-3-Acetic Acid, 5-Hydroxy Indole-3-Acetic Acid] |  | 0.535 | 0.11 | low levels of H2O2 production | 
22 | NCCc1c[nH]c2ccccc12 [Tryptamine] | higher oxidation potential than L-Trp | 1.010 | 0.53 | about half as much H2O2 | H2O2 production upon light exposure compared to L-Trp (in words) ([1]; listed as tryptamine): two times less

Source: patent publication US10653779B2, “Formulations with reduced oxidation” (Genentech, Inc., priority 2013, dated 2020)
